Tests used:
Type in all cases: biochemical
Settings in all cases: recombinant enzyme, 20° C., activity level classes
hALDH1a3 = target: T1, hALDH1a3 (Homo sapiens, UniProt P47895); assay: Aldh1a3 enzyme inhibition assay (resorufin fluorescence), human enzyme
T1 construct: made in house; host or cells: E. coli BL21-DE3
T1 sequence (P47895 1-512): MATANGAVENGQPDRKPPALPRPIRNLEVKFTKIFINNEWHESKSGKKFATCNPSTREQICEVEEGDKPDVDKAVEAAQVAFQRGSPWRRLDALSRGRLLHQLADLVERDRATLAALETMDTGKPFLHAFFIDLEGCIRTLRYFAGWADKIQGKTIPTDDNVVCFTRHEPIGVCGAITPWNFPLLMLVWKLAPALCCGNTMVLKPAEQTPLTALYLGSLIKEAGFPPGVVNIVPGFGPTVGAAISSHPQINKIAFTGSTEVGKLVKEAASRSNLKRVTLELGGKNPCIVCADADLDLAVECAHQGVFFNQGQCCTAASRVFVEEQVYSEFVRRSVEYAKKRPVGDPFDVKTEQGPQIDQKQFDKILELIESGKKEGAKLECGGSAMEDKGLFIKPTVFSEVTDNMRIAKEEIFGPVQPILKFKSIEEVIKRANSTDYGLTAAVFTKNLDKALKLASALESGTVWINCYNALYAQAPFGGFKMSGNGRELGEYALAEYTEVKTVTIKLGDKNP

mALDH1a3 = target: T2, mALDH1a3 (Mus musculus, UniProt Q9JHW9); assay: Aldh1a3 enzyme inhibition assay (resorufin fluorescence), mouse enzyme
T2 construct: made in house; host or cells: E. coli BL21-DE3
T2 sequence (Q9JHW9 1-512): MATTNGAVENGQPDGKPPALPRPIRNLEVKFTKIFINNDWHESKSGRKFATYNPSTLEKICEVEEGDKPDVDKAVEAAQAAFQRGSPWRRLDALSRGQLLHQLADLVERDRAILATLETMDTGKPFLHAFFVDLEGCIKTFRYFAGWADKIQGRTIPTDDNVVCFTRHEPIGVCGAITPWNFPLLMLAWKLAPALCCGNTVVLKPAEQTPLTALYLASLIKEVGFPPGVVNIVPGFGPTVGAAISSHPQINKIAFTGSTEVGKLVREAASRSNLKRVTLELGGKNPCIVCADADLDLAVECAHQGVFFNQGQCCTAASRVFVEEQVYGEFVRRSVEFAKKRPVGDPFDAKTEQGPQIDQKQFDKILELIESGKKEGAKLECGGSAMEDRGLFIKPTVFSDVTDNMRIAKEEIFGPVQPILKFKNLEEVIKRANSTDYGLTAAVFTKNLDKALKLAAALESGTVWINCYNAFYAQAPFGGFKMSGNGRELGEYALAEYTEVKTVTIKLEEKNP
Excerpt: Recombinant enzyme and inhibitor added immediately before assay. Reaction rate measured by resorufin fluorescence.

hALDH1a2 = target: T3, hALDH1a2 (Homo sapiens, UniProt O94788); assay: Aldh1a2 enzyme inhibition assay (resorufin fluorescence), human enzyme
T3 construct: made in house; host or cells: E. coli BL21-DE3
T3 sequence (O94788 1-518): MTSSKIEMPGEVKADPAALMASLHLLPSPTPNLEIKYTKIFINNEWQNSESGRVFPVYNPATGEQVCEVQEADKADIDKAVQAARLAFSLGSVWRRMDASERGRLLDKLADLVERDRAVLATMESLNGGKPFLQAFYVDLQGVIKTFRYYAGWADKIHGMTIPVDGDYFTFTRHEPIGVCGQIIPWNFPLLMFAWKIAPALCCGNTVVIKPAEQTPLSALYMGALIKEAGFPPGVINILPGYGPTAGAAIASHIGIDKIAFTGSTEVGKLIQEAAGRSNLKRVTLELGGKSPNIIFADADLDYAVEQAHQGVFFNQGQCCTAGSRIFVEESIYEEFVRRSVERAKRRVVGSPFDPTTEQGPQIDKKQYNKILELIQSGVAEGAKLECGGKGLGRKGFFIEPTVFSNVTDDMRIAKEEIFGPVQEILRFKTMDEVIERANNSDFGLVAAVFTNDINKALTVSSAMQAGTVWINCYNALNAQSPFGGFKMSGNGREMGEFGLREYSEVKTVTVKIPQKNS
Excerpt: (§1) Recombinant enzyme and inhibitor added immediately before assay. Reaction rate measured by resorufln fluorescence.

mALDH1a2 = target: T4, mALDH1a2 (Mus musculus, UniProt Q62148); assay: Aldh1a2 enzyme inhibition assay (resorufin fluorescence), mouse enzyme
T4 construct: made in house; host or cells: E. coli BL21-DE3
T4 sequence (Q62148 1-518): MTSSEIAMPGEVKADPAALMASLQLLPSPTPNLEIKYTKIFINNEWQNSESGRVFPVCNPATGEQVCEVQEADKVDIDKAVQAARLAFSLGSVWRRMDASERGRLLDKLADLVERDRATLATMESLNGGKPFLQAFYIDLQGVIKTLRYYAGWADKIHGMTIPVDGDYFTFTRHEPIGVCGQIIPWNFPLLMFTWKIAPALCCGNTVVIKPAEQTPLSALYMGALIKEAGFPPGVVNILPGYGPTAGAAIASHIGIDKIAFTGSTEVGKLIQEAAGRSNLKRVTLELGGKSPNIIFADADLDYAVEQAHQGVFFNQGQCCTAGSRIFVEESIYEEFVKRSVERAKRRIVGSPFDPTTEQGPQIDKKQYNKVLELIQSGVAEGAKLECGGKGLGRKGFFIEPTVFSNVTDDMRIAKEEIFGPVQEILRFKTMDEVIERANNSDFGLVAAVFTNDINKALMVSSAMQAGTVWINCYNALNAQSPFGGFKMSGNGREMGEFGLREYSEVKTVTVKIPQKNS
Excerpt: as §1

Row | SMILES | IC50 (hALDH1a3) [nM] | IC50 (mALDH1a3) [nM] | IC50 (hALDH1a2) [nM] | IC50 (mALDH1a2) [nM] | mAldh1a3 IC50 (mALDH1a3) | hAldh1a3 IC50 (hALDH1a3)
1 | CCc1ncoc1C(=O)Nc1cc(C)c2c(c1)C1CC1C(=O)N2 (stereo not drawn) [Compound 60] | 250 to 1000 | 100 to 250 | 250 to 1000 | 250 to 1000 | – | –
2 | CCc1ncsc1C(=O)Nc1cc(C)c2c(c1)C1CC1C(=O)N2 (stereo not drawn) [Compound 34] | < 100 | < 100 | < 100 | < 100 | – | –
3 | O=C1CCc2cc(NC(=O)c3ccccc3-c3cccc(F)c3)ccc2N1 [Compound 22] | > 5000 | – | > 5000 | > 5000 | No activity | –
4 | Cc1cc(NC(=O)c2scnc2CC2CC2)cc2c1NC(=O)CC2 [Compound 63] | < 100 | < 100 | 100 to 250 | 250 to 1000 | – | –
5 | O=C(Nc1cc(F)c2c(c1)C1CC1C(=O)N2)c1ocnc1CC(F)(F)F (stereo not drawn) [Compound 61] | 100 to 250 | 250 to 1000 | 250 to 1000 | 250 to 1000 | – | –
6 | CCc1sncc1C(=O)Nc1cc(C)c2c(c1)CCC(=O)N2 [Compound 50] | 250 to 1000 | < 100 | 250 to 1000 | 250 to 1000 | – | –
7 | CCc1ncsc1C(=O)Nc1cc(Cl)c2c(c1)C1CC1C(=O)N2 (stereo not drawn) [Compound 43] | 100 to 250 | < 100 | 1000 to 5000 | 1000 to 5000 | – | –
8 | Cc1cc(NC(=O)c2ocnc2CC(F)(F)F)cc2c1NC(=O)CC2 [Compound 56] | 250 to 1000 | 100 to 250 | 1000 to 5000 | 1000 to 5000 | – | –
9 | CCc1cnsc1C(=O)Nc1cc(C)c2c(c1)CCC(=O)N2 [Compound 48] | 100 to 250 | < 100 | 100 to 250 | 100 to 250 | – | –
10 | CCc1ncoc1C(=O)Nc1cc(F)c2c(c1)C1CC1C(=O)N2 (stereo not drawn) [Compound 62] | 1000 to 5000 | 1000 to 5000 | > 5000 | > 5000 | – | –
11 | Cc1cc(NC(=O)c2scnc2-c2cccc(F)c2)cc2c1NC(=O)CC2 [Compound 4, 4-(3-fluorophenyl)-N-(8-methyl-2-oxo-1,2,3,4-tetrahydroquinolin-6-yl)thiazole-5-carboxamide] | 100 to 250 | 250 to 1000 | 250 to 1000 | 250 to 1000 | – | –
12 | CCc1ncsc1C(=O)Nc1cc(C)c2c(c1)CCC(=O)N2 [Compound 32] | 100 to 250 | < 100 | 250 to 1000 | 250 to 1000 | – | –
13 | Cc1cc(NC(=O)c2scnc2CC(C)(C)C)cc2c1NC(=O)CC2 [Compound 64] | 250 to 1000 | 1000 to 5000 | 250 to 1000 | 1000 to 5000 | – | –
14 | Cc1cc(NC(=O)c2scnc2CC(F)(F)F)cc2c1NC(=O)CC2 [Compound 31] | 100 to 250 | < 100 | 250 to 1000 | 250 to 1000 | – | –
15 | CCc1scnc1C(=O)Nc1cc(Cl)c2c(c1)CCC(=O)N2 [Compound 44] | 1000 to 5000 | 100 to 250 | 1000 to 5000 | 1000 to 5000 | – | –
16 | CCc1sncc1C(=O)Nc1cc(C)c2c(c1)C1CC1C(=O)N2 (stereo not drawn) [Compound 52] | 100 to 250 | < 100 | < 100 | 100 to 250 | – | –
17 | Cc1cc(NC(=O)c2ccccc2-c2cccc(F)c2)cc2c1NC(=O)CC2 [Compound 23] | > 5000 | > 5000 | 1000 to 5000 | 1000 to 5000 | – | –

Row | SMILES | IC50 (hALDH1a3) [nM] | IC50 (mALDH1a3) [nM] | IC50 (hALDH1a2) [nM] | IC50 (mALDH1a2) [nM] | mAldh1a3 IC50 (mALDH1a3) | hAldh1a3 IC50 (hALDH1a3)
18 | Cc1cc(NC(=O)c2ccncc2-c2ccccc2F)cc2c1NC(=O)CC2 [Compound 2, 3-(2-fluorophenyl)-N-(8-methyl-2-oxo-1,2,3,4-tetrahydroquinolin-6-yl)isonicotinamide] | 1000 to 5000 | – | 100 to 250 | 250 to 1000 | No activity | –
19 | Cc1ccc(-c2cnccc2C(=O)Nc2cc(C)c3c(c2)CCC(=O)N3)cc1 [Compound 13] | – | – | > 5000 | > 5000 | No activity | No activity
20 | CCc1ncsc1C(=O)Nc1cc(Cl)c2c(c1)CCC(=O)N2 [Compound 36] | 100 to 250 | < 100 | 250 to 1000 | 250 to 1000 | – | –
21 | O=C1CCc2cc(NC(=O)c3ccncc3-c3ccccc3)cc(Cl)c2N1 [Compound 20] | 1000 to 5000 | 1000 to 5000 | < 100 | 100 to 250 | – | –
22 | Cc1cc(NC(=O)c2scnc2CC(F)(F)F)cc2c1NC(=O)C1CC21 (stereo not drawn) [Compound 33] | 100 to 250 | < 100 | < 100 | < 100 | – | –
23 | O=C1CCc2cc(NC(=O)c3ccccc3-c3cccc(F)c3)cc(Cl)c2N1 [Compound 24] | 1000 to 5000 | > 5000 | 100 to 250 | 250 to 1000 | – | –
24 | O=C1CCc2cc(NC(=O)c3scnc3-c3cccc(F)c3)c(F)cc2N1 [Compound 5, N-(7-fluoro-2-oxo-1,2,3,4-tetrahydroquinolin-6-yl)-4-(3-fluorophenyl)thiazole-5-carboxamide] | < 100 | 100 to 250 | 1000 to 5000 | 1000 to 5000 | – | –
25 | CCc1cnsc1C(=O)Nc1cc(C)c2c(c1)C1CC1C(=O)N2 (stereo not drawn) [Compound 41] | < 100 | < 100 | < 100 | < 100 | – | –
26 | O=C(Nc1cc(Cl)c2c(c1)C1CC1C(=O)N2)c1scnc1CC(F)(F)F (stereo not drawn) [Compound 37] | 100 to 250 | < 100 | 100 to 250 | 100 to 250 | – | –
27 | Cc1cc(NC(=O)c2ccncc2-c2cccc(C#N)c2)cc2c1NC(=O)CC2 [Compound 12] | – | – | 1000 to 5000 | > 5000 | No activity | No activity
28 | CCc1csnc1C(=O)Nc1cc(C)c2c(c1)C1CC1C(=O)N2 (stereo not drawn) [Compound 46] | 100 to 250 | < 100 | 100 to 250 | 100 to 250 | – | –
29 | CCc1nc[nH]c1C(=O)Nc1cc(C)c2c(c1)CCC(=O)N2 [Compound 59] | 1000 to 5000 | 250 to 1000 | 1000 to 5000 | 1000 to 5000 | – | –
30 | Cc1cc(NC(=O)c2ccncc2-c2cccc(F)c2)cc2c1NC(=O)CC2 [Compound 3, 3-(3-fluorophenyl)-N-(8-methyl-2-oxo-1,2,3,4-tetrahydroquinolin-6-yl)isonicotinamide] | 1000 to 5000 | – | 250 to 1000 | 250 to 1000 | No activity | –
31 | O=C1CCc2cc(NC(=O)c3ccncc3-c3ccccc3F)ccc2N1 [Compound 25] | > 5000 | – | 1000 to 5000 | 1000 to 5000 | No activity | –
32 | CCc1scnc1C(=O)Nc1cc(C)c2c(c1)C1CC1C(=O)N2 (stereo not drawn) [Compound 39] | 250 to 1000 | 250 to 1000 | 250 to 1000 | 250 to 1000 | – | –
33 | Cc1cc(NC(=O)c2scnc2C2CC2)cc2c1NC(=O)CC2 [Compound 77] | 250 to 1000 | 100 to 250 | 250 to 1000 | 250 to 1000 | – | –
